Assay [1] has as its target T1, c-Met (cytoplasmic domain) (Homo sapiens, UniProt P08581).
T1 construct: 10 ng/mL c-Met (cytoplasmic domain, Invitrogen Corporation #PV3143); purchased Invitrogen Corporation PV3143
Description: c-Met Kinase Assay (same methods as for ALK, with modifications). It is filed as biochemical. An outline of the steps:
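IC50 values were fitted by variable-slope sigmoidal regression of percent inhibition against log compound concentration. Phosphorylation was read with Eu-N1 PT66 antibody after a 15 min, 37 °C reaction. The reaction was initiated with 10 ng/mL c-Met cytoplasmic domain on wells coated with 10 μg/mL PLC-γ in TBS.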

Assay [2] concerns the target T2, baculovirus-expressed ALK (Homo sapiens, UniProt Q9UM73).
T2 construct: host or cells: baculovirus expression system
Description: ALK Kinase Assay (ELISA-type, time-resolved fluorescence). The conditions noted are these: 1 μM ATP (Km level). Format: biochemical. An outline of the steps: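 Wells were coated with phospholipase C-γ at 10 μg/mL in Tris-buffered saline. Adding 30 ng/ml enzyme started the reaction, which ran at 37° C for 15 minutes before Eu-N1 PT66 antibody detection. Percent inhibition versus log10 concentration gave IC50 by variable-slope fit.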
Background: An ELISA detects its analyte on a solid surface through an enzyme-linked reagent.

Setting [3] is: 1 μM ATP (Km level), 10 ng/mL c-Met; read-out: cMet Activity (c-Met kinase inhibition, IC50 class).
Where [4] appears, read: 30 ng/ml ALK, 37° C., 15 minutes, read-out: ALK Activity (ALK kinase inhibition, IC50 class).
Where [5] appears, read: 1 μM ATP (Km level); read-out: cMet Activity (c-Met Kinase Inhibition, IC50).
[6] abbreviates: read-out: ALK Activity (ALK Kinase Inhibition, IC50).

Structures are written as SMILES. pIC50: −log10 of the molar value. Where two headings read alike, the source gives them in different places.

T2 sequence (Q9UM73 19-1620): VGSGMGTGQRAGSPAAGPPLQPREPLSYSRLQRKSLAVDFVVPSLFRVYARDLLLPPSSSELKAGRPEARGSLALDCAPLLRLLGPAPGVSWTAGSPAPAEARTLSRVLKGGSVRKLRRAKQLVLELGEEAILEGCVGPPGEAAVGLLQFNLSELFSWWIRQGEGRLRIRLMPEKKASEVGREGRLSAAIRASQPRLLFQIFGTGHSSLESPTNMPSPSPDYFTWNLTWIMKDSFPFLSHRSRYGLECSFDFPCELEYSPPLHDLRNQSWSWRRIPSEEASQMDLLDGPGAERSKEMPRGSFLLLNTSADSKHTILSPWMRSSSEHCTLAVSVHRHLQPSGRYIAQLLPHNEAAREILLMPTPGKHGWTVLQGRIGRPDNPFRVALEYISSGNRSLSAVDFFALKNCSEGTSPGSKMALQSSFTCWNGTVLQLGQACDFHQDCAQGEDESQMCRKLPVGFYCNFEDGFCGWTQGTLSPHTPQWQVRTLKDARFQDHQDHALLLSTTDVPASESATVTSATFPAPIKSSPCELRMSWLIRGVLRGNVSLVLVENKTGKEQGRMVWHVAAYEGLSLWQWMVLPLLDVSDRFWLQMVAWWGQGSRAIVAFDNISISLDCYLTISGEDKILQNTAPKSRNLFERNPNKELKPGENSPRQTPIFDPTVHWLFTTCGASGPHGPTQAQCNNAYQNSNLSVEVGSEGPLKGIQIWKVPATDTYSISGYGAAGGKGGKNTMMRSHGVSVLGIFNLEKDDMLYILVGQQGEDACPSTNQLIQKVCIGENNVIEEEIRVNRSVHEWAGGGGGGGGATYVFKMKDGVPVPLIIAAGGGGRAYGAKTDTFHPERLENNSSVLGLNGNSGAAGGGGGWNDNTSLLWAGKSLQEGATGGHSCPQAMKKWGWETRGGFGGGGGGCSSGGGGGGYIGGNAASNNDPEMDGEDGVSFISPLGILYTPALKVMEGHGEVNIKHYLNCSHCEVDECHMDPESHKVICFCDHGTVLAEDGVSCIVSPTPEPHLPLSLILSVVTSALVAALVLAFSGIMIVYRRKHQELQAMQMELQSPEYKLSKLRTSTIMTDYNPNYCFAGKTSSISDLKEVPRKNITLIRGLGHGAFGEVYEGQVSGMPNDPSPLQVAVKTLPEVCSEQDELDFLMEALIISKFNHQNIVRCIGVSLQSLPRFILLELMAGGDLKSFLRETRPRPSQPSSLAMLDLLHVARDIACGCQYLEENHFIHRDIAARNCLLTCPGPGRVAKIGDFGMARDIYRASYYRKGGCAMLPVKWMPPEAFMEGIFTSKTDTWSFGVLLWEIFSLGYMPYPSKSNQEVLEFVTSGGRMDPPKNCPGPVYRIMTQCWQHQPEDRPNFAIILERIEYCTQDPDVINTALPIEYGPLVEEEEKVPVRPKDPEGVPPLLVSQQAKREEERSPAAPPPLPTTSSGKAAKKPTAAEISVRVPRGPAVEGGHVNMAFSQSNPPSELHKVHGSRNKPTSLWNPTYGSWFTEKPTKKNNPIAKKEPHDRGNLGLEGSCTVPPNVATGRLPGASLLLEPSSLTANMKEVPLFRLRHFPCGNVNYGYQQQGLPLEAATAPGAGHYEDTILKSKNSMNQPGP
T1 sequence (P08581 956-1390 limits assumed): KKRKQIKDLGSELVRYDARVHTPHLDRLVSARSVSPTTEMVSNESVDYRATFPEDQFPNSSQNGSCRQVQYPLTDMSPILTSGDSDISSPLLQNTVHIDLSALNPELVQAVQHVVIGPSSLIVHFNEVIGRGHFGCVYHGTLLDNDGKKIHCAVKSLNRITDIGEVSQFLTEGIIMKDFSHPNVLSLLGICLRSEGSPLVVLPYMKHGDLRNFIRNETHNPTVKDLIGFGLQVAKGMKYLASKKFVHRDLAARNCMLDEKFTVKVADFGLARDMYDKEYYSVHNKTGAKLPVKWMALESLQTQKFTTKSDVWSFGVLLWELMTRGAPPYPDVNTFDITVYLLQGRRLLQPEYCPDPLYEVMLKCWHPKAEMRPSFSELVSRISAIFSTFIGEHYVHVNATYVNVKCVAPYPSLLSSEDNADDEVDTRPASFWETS

As for `COCCN1CCc2ccc(Nc3ncc(Cl)c(N[C@@H]4CCC[C@@H](NS(C)(=O)=O)C4)n3)cc2CC1` (relative stereo) [Example 1379, rel-N-((1R,3R)-3-{5-Chloro-2-[3-(2-methoxy-ethyl)-2,3,4,5-tetrahydro-1H-benzo[d]azepin-7-ylamino]-pyrimidin-4-ylamino}-cyclohexyl)-methanesulfonamide], the pIC50 in assay [1] (setting [3]) and in assay [2] (setting [4]) was 5.00 to 6.00 in each case.

For `COCCN1CCc2ccc(Nc3ncc(Cl)c(N[C@@H]4CCC[C@H](NS(C)(=O)=O)C4)n3)cc2CC1` (relative stereo) [Example 1380, rel-N-((1S,3R)-3-{5-Chloro-2-[3-(2-methoxy-ethyl)-2,3,4,5-tetrahydro-1H-benzo[d]azepin-7-ylamino]-pyrimidin-4-ylamino}-cyclohexyl)-methanesulfonamide], the pIC50 is less than 5.00 in assay [1] (setting [3]) and 5.00 to 6.00 in assay [2] (setting [4]).

Consider `COCCN1CCc2ccc(Nc3ncc(Cl)c(N[C@@H]4CCC[C@@H](N(CC#N)S(C)(=O)=O)C4)n3)cc2CC1` (relative stereo) [Example 1382, rel-N-((1R,3R)-3-{5-Chloro-2-[3-(2-methoxy-ethyl)-2,3,4,5-tetrahydro-1H-benzo[d]azepin-7-ylamino]-pyrimidin-4-ylamino}-cyclohexyl)-N-cyanomethyl-methanesulfonamide], for which the values for the pIC50 in assay [1] (setting [3]) and in assay [2] (setting [4]) were 5.00 to 6.00 and 6.00 to 7.00, respectively.

Take `COCCN1CCc2ccc(Nc3ncc(Cl)c(N[C@@H]4CCC[C@H](N(CC#N)S(C)(=O)=O)C4)n3)cc2CC1` (relative stereo) [Example 1386, rel-N-((1S,3R)-3-{5-Chloro-2-[3-(2-methoxy-ethyl)-2,3,4,5-tetrahydro-1H-benzo[d]azepin-7-ylamino]-pyrimidin-4-ylamino}-cyclohexyl)-N-cyanomethyl-methanesulfonamide]: the pIC50 was 5.00 to 6.00 in assay [1] (setting [3]) and 6.00 to 7.00 in assay [2] (setting [4]).

Take `CNC(=O)c1ccccc1Nc1nc(Nc2ccc3c(c2)C2CN(S(C)(=O)=O)CC3O2)ncc1Cl` (single isomer, unassigned) [Example 183, 2-[5-Chloro-2-(10-methanesulfonyl-12-oxa-10-aza-tricyclo[6.3.1.0*2,7*]dodeca-2(7),3,5-trien-4-ylamino)-pyrimidin-4-ylamino]-N-methyl-benzamide]: the pIC50 in assay [1] (c-Met kinase inhibition, 1 μM ATP (Km level); read-out: cMet Activity) was more than 7.00; in assay [2] (ALK kinase inhibition, read-out: ALK Activity) it was more than 7.00.

As to `NC(=O)[C@@H]1[C@H](Nc2nc(Nc3ccc4c(c3)CCC(N3CCOCC3)CC4)ncc2Cl)[C@H]2C=C[C@@H]1C2` (single isomer, unassigned) [Example 681], the pIC50 in assay [1] (setting [5]) was 6.00 to 7.00; in assay [2] (setting [6]) it was more than 7.00.

On to `NC(=O)[C@@H]1[C@H](Nc2nc(Nc3ccc4c(c3)CCC(N3CCOCC3)CC4)ncc2Cl)[C@H]2C=C[C@@H]1C2` (single isomer, unassigned) [Example 682], for which the pIC50 was 6.00 to 7.00 in assay [1] (setting [5]) and more than 7.00 in assay [2] (setting [6]).

`COCCNC1CCc2ccc(Nc3ncc(Cl)c(N[C@@H]4CCCC[C@H]4NS(C)(=O)=O)n3)c(OC)c2CC1` (single isomer, unassigned) [Example 693]: the pIC50 in assay [1] (setting [5]) is less than 5.00; in assay [2] (setting [6]), more than 7.00.

Regarding `COCCNC1CCc2ccc(Nc3ncc(Cl)c(N[C@@H]4CCCC[C@H]4NS(C)(=O)=O)n3)c(OC)c2CC1` (single isomer, unassigned) [Example 694], the pIC50 in assay [1] (setting [5]) is less than 5.00; in assay [2] (setting [6]) it was more than 7.00.

As for `COc1c(Nc2ncc(Cl)c(N[C@H]3[C@@H](C(N)=O)[C@@H]4C=C[C@H]3C4)n2)ccc2c1CCC(NCCO)CC2` (single isomer, unassigned) [Example 696], the pIC50 is less than 5.00 in assay [1] (setting [5]) and more than 7.00 in assay [2] (setting [6]).

Regarding `COc1c(Nc2ncc(Cl)c(N[C@H]3[C@@H](C(N)=O)[C@@H]4C=C[C@H]3C4)n2)ccc2c1CCC(NCCO)CC2` (single isomer, unassigned) [Example 697], the results for the pIC50 in assay [1] (setting [5]) and in assay [2] (setting [6]) were 5.00 to 6.00 and more than 7.00, respectively.

In the case of `COc1c(Nc2ncc(Cl)c(N[C@@H]3CCCC[C@H]3NS(C)(=O)=O)n2)ccc2c1CCC(NCCO)CC2` (single isomer, unassigned) [Example 698], the values for the pIC50 in assay [1] (setting [5]) and in assay [2] (setting [6]) were less than 5.00 and more than 7.00, respectively.

Regarding `COc1c(Nc2ncc(Cl)c(N[C@@H]3CCCC[C@H]3NS(C)(=O)=O)n2)ccc2c1CCC(NCCO)CC2` (single isomer, unassigned) [Example 699], the pIC50 in assay [1] (setting [5]) is less than 5.00; in assay [2] (setting [6]), more than 7.00.

As for `COCCN(C)C1CCc2ccc(Nc3ncc(Cl)c(N[C@H]4[C@@H](C(N)=O)[C@@H]5C=C[C@H]4C5)n3)c(OC)c2CC1` (single isomer, unassigned) [Example 700], the values for the pIC50 in assay [1] (setting [5]) and in assay [2] (setting [6]) were less than 5.00 and more than 7.00, respectively.

As for `COCCN(C)C1CCc2ccc(Nc3ncc(Cl)c(N[C@H]4[C@@H](C(N)=O)[C@@H]5C=C[C@H]4C5)n3)c(OC)c2CC1` (single isomer, unassigned) [Example 701], the pIC50 was less than 5.00 in assay [1] (setting [5]) and more than 7.00 in assay [2] (setting [6]).

For the compound `COCCOC(=O)C1[C@@H]2C=C[C@@H](C2)[C@H]1Nc1nc(Nc2ccc3c(c2OC)CC[C@@H](N2CCOCC2)CC3)ncc1Cl` (single isomer, unassigned) [Example 904], the figures for the pIC50 in assay [1] (setting [5]) and in assay [2] (setting [6]) were less than 5.00 and 5.00 to 6.00, respectively.

Consider `COCCOC(=O)C1[C@@H]2C=C[C@@H](C2)[C@H]1Nc1nc(Nc2ccc3c(c2OC)CC[C@@H](N2CCOCC2)CC3)ncc1Cl` (single isomer, unassigned) [Example 905], for which the pIC50 was less than 5.00 in assay [1] (setting [5]) and 6.00 to 7.00 in assay [2] (setting [6]).

As to `COc1c(Nc2ncc(Cl)c(N[C@H]3[C@@H](C(N)=O)[C@@H]4C=C[C@H]3C4)n2)ccc2c1CCCC(N1CCOCC1)C2` (single isomer, unassigned) [Example 940], the pIC50 was less than 5.00 in assay [1] (cMet Activity (c-Met Kinase Inhibition, IC50), 1 μM ATP (Km level)) and more than 7.00 in assay [2] (setting [6]).

Take `COc1c(Nc2ncc(Cl)c(N[C@H]3[C@@H](C(N)=O)[C@@H]4C=C[C@H]3C4)n2)ccc2c1CCCC(N1CCOCC1)C2` (single isomer, unassigned) [Example 941]: the pIC50 in assay [1] (read-out: cMet Activity (c-Met Kinase Inhibition, IC50); 1 μM ATP (Km level)) is less than 5.00; in assay [2] (setting [6]), more than 7.00.

With `COc1ccc(Nc2ncc(Cl)c(N[C@H]3[C@@H](C(N)=O)[C@@H]4C=C[C@H]3C4)n2)c2c1CCCC(N1CCOCC1)C2` (single isomer, unassigned) [Example 942], the pIC50 in assay [1] (setting [5]) was less than 5.00; in assay [2] (setting [6]), 5.00 to 6.00.

With `COc1ccc(Nc2ncc(Cl)c(N[C@H]3[C@@H](C(N)=O)[C@@H]4C=C[C@H]3C4)n2)c2c1CCCC(N1CCOCC1)C2` (single isomer, unassigned) [Example 943], the pIC50 in assay [1] (setting [5]) was less than 5.00; in assay [2] (setting [6]), 5.00 to 6.00.

For the compound `COc1cc2c(cc1Nc1ncc(Cl)c(N[C@H]3[C@@H](C(N)=O)[C@@H]4C=C[C@H]3C4)n1)CCC(NCC(F)F)CC2` (single isomer, unassigned) [Example 1053], the figures for the pIC50 in assay [1] (setting [3]) and in assay [2] (setting [4]) were less than 5.00 and more than 7.00, respectively.

As to `COc1cc2c(cc1Nc1ncc(Cl)c(N[C@H]3[C@@H](C(N)=O)[C@@H]4C=C[C@H]3C4)n1)CCC(NCC(F)F)CC2` (single isomer, unassigned) [Example 1054], the pIC50 in assay [1] (setting [3]) is less than 5.00; in assay [2] (setting [4]) it was more than 7.00.

Consider `COc1cc2c(cc1Nc1ncc(Cl)c(N[C@@H]3CCCC[C@H]3NS(C)(=O)=O)n1)CCC(NCC(F)F)CC2` (single isomer, unassigned) [Example 1057], for which the pIC50 was less than 5.00 in assay [1] (setting [3]) and more than 7.00 in assay [2] (setting [4]).

As to `COc1cc2c(cc1Nc1ncc(Cl)c(N[C@@H]3CCCC[C@H]3NS(C)(=O)=O)n1)CCC(NCC(F)F)CC2` (single isomer, unassigned) [Example 1058], the values for the pIC50 in assay [1] (setting [3]) and in assay [2] (setting [4]) were less than 5.00 and more than 7.00, respectively.

Turning to `COc1ccc2c(c1Nc1ncc(Cl)c(N[C@@H]3CCCC[C@H]3NS(C)(=O)=O)n1)CCC(NCC(F)F)CC2` (single isomer, unassigned) [Example 1074], the pIC50 in assay [1] (setting [3]) is less than 5.00; in assay [2] (setting [4]), 6.00 to 7.00.

For `COc1ccc2c(c1Nc1ncc(Cl)c(N[C@@H]3CCCC[C@H]3NS(C)(=O)=O)n1)CCC(NCC(F)F)CC2` (single isomer, unassigned) [Example 1075], the pIC50 in assay [1] (setting [3]) was less than 5.00; in assay [2] (setting [4]), 5.00 to 6.00.

Turning to `COc1cc2c(cc1Nc1ncc(Cl)c(N[C@@H]3CCCC[C@H]3NS(C)(=O)=O)n1)CCC(NCCO)CC2` (single isomer, unassigned) [Example 1094], the pIC50 in assay [1] (setting [3]) is less than 5.00; in assay [2] (setting [4]) it was more than 7.00.

In the case of `COc1cc2c(cc1Nc1ncc(Cl)c(N[C@@H]3CCCC[C@H]3NS(C)(=O)=O)n1)CCC(NCCO)CC2` (single isomer, unassigned) [Example 1095], the pIC50 in assay [1] (setting [3]) is less than 5.00; in assay [2] (setting [4]), more than 7.00.

In the case of `COc1cc2c(cc1Nc1ncc(Cl)c(N[C@H]3[C@@H](C(N)=O)[C@@H]4C=C[C@H]3C4)n1)CCC(NCCO)CC2` (single isomer, unassigned) [Example 1096], the pIC50 in assay [1] (setting [3]) was less than 5.00; in assay [2] (setting [4]), more than 7.00.

For `COc1cc2c(cc1Nc1ncc(Cl)c(N[C@H]3[C@@H](C(N)=O)[C@@H]4C=C[C@H]3C4)n1)CCC(NCCO)CC2` (single isomer, unassigned) [Example 1097], the pIC50 in assay [1] (setting [3]) is less than 5.00; in assay [2] (setting [4]) it was more than 7.00.

For the origin of these results see patent publication US8148391B2 (Cephalon, Inc., priority 2006, dated 2012).
